Results published in US20160359116A1, “Organic Semiconductor Formulations” (SMARTKEM LIMITED, priority 2012, published 2016).

Test: Solubility of the OSC small molecule and binder in aromatic hydrocarbon and further solvents
Type: physicochemical
Excerpt: The aromatic hydrocarbon solvent of the multi-solvent formulation is capable of dissolving at least 0.5% by weight of the polycrystalline small molecule of the present invention, more preferably greater than 1%.
The further (subsidiary) solvent(s) are preferably less solubilising of the polycrystalline small molecule and typically dissolve less than 0.2% by weight of the small molecule OSC, more preferably less than 0.1% by weight, more preferably less than 0.05% by weight.
Preferably, the semiconducting binder of the invention is essentially insoluble in the further solvent.

Q: For `CC[Si](C#Cc1c2cc3c(C)ccc(C)c3cc2c(C#C[Si](CC)(CC)CC)c2cc3c(C)ccc(C)c3cc12)(CC)CC` [1,4,8,11-tetramethyl, 6,13-bis-(triethylsilylethynyl)pentacene], which Solubility (in 2-Bromomesitylene) is on record?
A: 1.4% w/v

Q: What about the Solubility (in Bromobenzene) of the same molecule?
A: 3.5% w/v

Q: And the Solubility (in Cyclohexane)?
A: <0.1%

Q: What about the Solubility (in Mesitylene) of the same molecule?
A: ~1% w/v

Q: What about the Solubility (in Methyl ethyl ketone (MEK)) of the same molecule?
A: Insol.

Q: And the Solubility (in Propan-2-ol)?
A: Insol.

Q: What about the Solubility (in Tetralin) of the same molecule?
A: 0.6% w/v

Q: And the Solubility (in n-Heptane)?
A: <0.1%

Q: And the Solubility (in n-Octane)?
A: <0.1%
